Structures can show the parent of a compound that is named as a salt. Where two headings read alike, the source gives them in different places.
Legend:
PE052 primary cells = assay: Cell viability IC50 (CCK-8), primary cells PE052 from small cell lung cancer pleural effusion; format: cell-based; settings: PE052, CCK-8
Procedure: (§1) (1) The pleural effusion was poured into a 15 mL or 50 mL of sterilized centrifuge tube for centrifugation. Centrifugation conditions: 800 to 1000 rpm, 5 min.
(§2) (2) The precipitate was resuspended and washed for 2 to 3 times with PBS.
(§3) (3) The cell precipitate was resuspended with complete culture medium (α-MEM medium containing 10% fetal bovine serum and 2% penicillin-streptomycin), and the flocculent matter in the pleural effusion was removed using a sterilized cell sieve.
(§4) (4) The red blood cells in the pleural effusion were removed with lymphocyte separation fluid, and the tumor cells and lymphocyte components were collected. The number of tumor cells was observed under a microscope, and the cells were inoculated.
(§5) (5) After 24 hours, the supernatant was discarded, and fresh culture medium was added for further culture.
(§6) (6) The cell growth status was observed, and it was determined based on the cell status whether the medium was required to be continuously changed to remove blood cells. When the cells grew to a density of 80% to 90%, the cells were preserved.
(§7) (1) Primary cells from lung cancer pleural effusion within 5 generations were cultured to the logarithmic growth phase. […] After centrifugation at room temperature, the supernatant was discarded, and the cell precipitate was resuspended with fresh complete culture medium. After counting, the cells were placed at room temperature for later use. The cells were inoculated into a 384-well plate at a density of 2000 cells/well with a volume of 40 μl/well. The wells at the outermost circle of the plate were not inoculated with cells, and instead, added with sterile water to reduce evaporation of the culture medium.
(§8) (2) After overnight culture of the cells, the medium was discarded, and a fresh medium containing different concentrations of compounds was added at 200 μl/well. The dilution method of the compound was as follows: first the compound with the highest concentration of 10 μM was prepared, and then the compound was diluted for 3 times in sequence. […] At the same time, a blank control group was set up, in which only an equal volume of culture medium was added without adding cells. Five replicate wells were set up for each group. The cells were placed in the incubator for further culture.
(§9) (3) After 72 hours, 8 μl of CCK-8 solution, which was double-diluted with 10 mM PBS, was added to each well, and the cells were shaken and placed in an incubator at 37° C. for further culture for 2 hours.
(§10) (4) The light absorbance value at 450 nm was read using a microplate reader, and the IC50 was calculated according to the absorbance value. The calculation method was the same as above.
(§11) (1) Sample information: PE039, PE052, and PE062 were all primary cell samples from pleural effusion of patients with small cell lung cancer, and LT015 was a primary cell sample from bronchoscopic biopsy of a patient with small cell lung cancer.
(§12) (2) CCK-8 detection was used to detect the IC50 values of different medicaments (compounds).

PE062 primary cells = assay: Cell viability IC50 (CCK-8), primary cells PE062 from small cell lung cancer pleural effusion; format: cell-based; settings: PE062, CCK-8
Procedure: as §1, §2, §3, §4, §5, §6, §7, §8, §9, §10, §11, §12

LT015 primary cells = assay: Cell viability IC50 (CCK-8), primary cells LT015 from small cell lung cancer bronchoscopic biopsy; format: cell-based; settings: LT015, CCK-8
Procedure: (1) The tissue blocks obtained from the tumor patients were transferred from the preservation solution to the pre-cooled HBSS buffer containing antibiotics, and the tissue blocks were washed for three times with the pre-cooled HBSS buffer.
(2) Tissue was sheared on ice with sterile surgical instruments until no obvious tissue blocks are visible to the naked eye, the tissue fluid was collected into a 15 ml centrifuge tube, and this process takes about 5 to 10 minutes.
(3) Digestive enzymes (collagenase I, collagenase IV and neutral protease being mixed in a ratio of 1:1:1, a concentration of stock solution was 10 mg/ml, diluted with PBS buffer or HBSS buffer, and the use concentration was 1 mg/ml) were added to the centrifuge tube, and after mixing well by pipetting, the centrifuge tube was placed in a 37° C. constant temperature incubator for 1 to 2 hours.
(4) High-glucose medium was added to the centrifuge tube to stop digestion. After mixing well, the cell precipitate was collected by centrifugation, and resuspended with MBM medium (Advanced DMEM-F12+20 ng/ml bFGF+50 ng/ml EGF+1% ITS-X+2% B27+10 μMY-27632+1% PS). The cell suspension was placed in a Matrigel-coated 24-well plate and cultured for 5 to 7 days. When the cell density in the well plate reaches 80-90%, the cells were sub-cultured into a 6 cm cell culture dish, and when they grew to a density of 80% to 90%, the cells were cryopreserved for preservation.
(1) Primary cells from lung cancer pleural effusion within 5 generations were cultured to the logarithmic growth phase. When the confluence reached about 90%, the cells were digested with 0.25% trypsin, and complete culture medium was added to collect the cells. After centrifugation at room temperature, the supernatant was discarded, and the cell precipitate was resuspended with fresh complete culture medium. After counting, the cells were placed at room temperature for later use. The cells were inoculated into a 384-well plate at a density of 2000 cells/well with a volume of 40 μl/well. The wells at the outermost circle of the plate were not inoculated with cells, and instead, added with sterile water to reduce evaporation of the culture medium.
as §8, §9, §10, §11, §12

NCI-H1975 cells = assay: Cell viability IC50 (MTT), Gefitinib-resistant NCI-H1975 cells
Procedure: (§15) 1% sodium pyruvate was additionally added when culturing NCI-H1975 cells. All the cells were cultured in a constant temperature incubator containing 5% CO2 at 37° C.
(§16) (1) The cells were cultured to the logarithmic growth phase. […] After centrifugation at room temperature, the supernatant was discarded, and the cell precipitate was resuspended with fresh complete medium. After counting, the cells were placed at room temperature for later use.
(§17) (2) The cells were inoculated into a 96-well plate at a density of 4,000 cells/well with a volume of 100 μl/well. The wells at the outermost circle of the plate were not inoculated with cells, and instead, added with sterile water to reduce evaporation of the culture medium.
(§18) (3) After overnight culture of the cells, the medium was discarded, and a fresh medium containing different concentrations of compounds was added at 200 μl/well. The dilution method of the compound was as follows: first the compound with the highest concentration of 10 μM was prepared, and then the compound was diluted for 3 times in sequence. […] At the same time, a blank control group was set up, in which only an equal volume of culture medium was added without adding cells. Six replicate wells were set up for each group. The cells were placed in the incubator for further culture.
(§19) (4) After 72 hours, 20 μl of MTT solution (5 mg/ml) sterilized by filtration through a 0.22 m filter membrane was added to each well, and the cells were cultured in an incubator at 37° C. for another 4 hours.
(§20) (6) IC50 of the compounds for different cells was calculated based on the light absorption value of each group. Specifically, the absorbance value under treatment with different concentrations of compounds was first subtracted from the absorbance value of the blank well, and then the absorbance value of the 0 μM group was taken as 100% to calculate the cell survival rate after treatment with different concentrations of compounds. That is, survival rate=((ODexperimental well−ODblank control)/(ODnegative control−ODblank control))×100%. IC50 values were calculated based on the survival rate and concentration of the compound.

NCI-H1650 cells = assay: Cell viability IC50 (MTT), Gefitinib- and Osimertinib-resistant NCI-H1650 cells; settings: Homo sapiens, NCI-H1650, 72 h, read-out: cell viability IC50
Procedure: as §15, §16, §17, §18, §19, §20

DMS114 cells = assay: Cell viability IC50 (CCK-8), small cell lung cancer cell line DMS114; format: cell-based; settings: Homo sapiens, DMS-114; DMS114, CCK-8
Procedure: (§13) Small cell lung cancer cell lines DMS114, NCI-H1688, NCI-H82, NCI-H146, and NCI-H446 cells were cultured in RPMI-1640 medium containing 10% fetal bovine serum and 1% penicillin-streptomycin. All the cells were cultured in a constant temperature incubator containing 5% CO2 at 37° C.
(§14) Small cell lung cancer is a highly heterogeneous malignant tumor, and its clinical treatment is mainly based on traditional chemotherapy (mainly platinum medicaments and etoposide). In order to study the anti-tumor activity of the compounds of the present disclosure in small cell lung cancer, the CCK-8 method was used to investigate the cell viability IC50 of compound 8 for five small cell lung cancer cell lines.

NCI-H146 cells = assay: Cell viability IC50 (CCK-8), small cell lung cancer cell line H146; format: cell-based; settings: Homo sapiens, NCI-H146; H146, CCK-8
Procedure: as §13, §14

NCI-H1688 cells = assay: Cell viability IC50 (CCK-8), small cell lung cancer cell line H1688; format: cell-based; settings: NCI-H1688; H1688, CCK-8
Procedure: as §13, §14

NCI-H446 cells = assay: Cell viability IC50 (CCK-8), small cell lung cancer cell line H446; format: cell-based; settings: Homo sapiens, NCI-H446; H446, CCK-8
Procedure: as §13, §14

NCI-H82 cells = assay: Cell viability IC50 (CCK-8), small cell lung cancer cell line H82; format: cell-based; settings: Homo sapiens, NCI-H82; H82, CCK-8
Procedure: as §13, §14

PE043 primary cells = assay: Cell viability IC50 (CCK-8), primary cells PE043 from lung adenocarcinoma pleural effusion resistant to EGFR-TKI; settings: read-out: cell viability IC50
PE039 primary cells = assay: Cell viability IC50 (CCK-8), primary cells PE039 from small cell lung cancer pleural effusion; format: cell-based; settings: PE039, CCK-8
Procedure: as §1, §2, §3, §4, §5, §6, §7, §8, §9
(4) The light absorbance value at 450 nm was read using a microplate reader, and the IC50 was calculated according to the absorbance value. The calculation method was the same as above. […]

[1] = Homo sapiens, NCI-H1975, 72 h, read-out: cell viability IC50

## COc1cc2c(Oc3ccc4[nH]c(C)cc4c3F)ccnc2cc1OCC1(N)CC1 [Anlotinib]
PE052 primary cells
  IC50: 9440 nM
PE062 primary cells
  IC50: 1500 nM
LT015 primary cells
  IC50: 2070 nM

## CN1CCN(Cc2ccc(Nc3ncc(Cl)c(Nc4ccccc4S(=O)(=O)N(C)C)n3)cn2)CC1 [Compound 2, 2-((5-chloro-2-((6-((4-methylpiperazin-1-yl)methyl)pyridin-3-yl)amino)pyrimidin-4-yl)amino)-N,N-dimethylbenzenesulfonamide]
NCI-H1975 cells; [1]
  IC50: 86.4 nM
NCI-H1650 cells
  IC50: 466 nM

## CN(C)CCN1Cc2ccc(Nc3ncc(Cl)c(Nc4ccccc4S(=O)(=O)N(C)C)n3)cc2C1 [Compound 3, 2-((5-chloro-2-((2-(2-(dimethylamino)ethyl)isodihydroindol-5-yl)amino)pyrimidin-4-yl)amino)-N,N-dimethylbenzenesulfonamide]
NCI-H1975 cells; [1]
  IC50: 28.3 nM
NCI-H1650 cells
  IC50: 37.8 nM

## CN(C)C1CCN(Cc2ccc(Nc3ncc(Cl)c(Nc4ccccc4S(=O)(=O)N(C)C)n3)cc2)C1 (centres unmarked) [Compound 4, 2-((5-chloro-2-((4-((3-(dimethylamino)pyrrolidin-1-yl)methyl)phenyl)amino)pyrimidin-4-yl)amino)-N,N-dimethylbenzenesulfonamide]
NCI-H1975 cells; [1]
  IC50: 87.7 nM
NCI-H1650 cells
  IC50: 163 nM

## CN1CCN(Cc2ccc(Nc3ncc(Cl)c(Nc4ccncc4S(=O)(=O)N(C)C)n3)cc2)CC1 [Compound 6, 4-((5-chloro-2-((4-((4-methylpiperazin-1-yl)methyl)phenyl)amino)pyrimidin-4-yl)amino)-N,N-dimethylpyridine-3-sulfonamide]
NCI-H1975 cells; [1]
  IC50: 47.7 nM
NCI-H1650 cells
  IC50: 250 nM

## CN1C2CCC1CN(Cc1ccc(Nc3ncc(Cl)c(Nc4ccccc4S(=O)(=O)N(C)C)n3)cc1)C2 [Compound 9, 2-((5-chloro-2-((4-((8-methyl-3,8-diazabicyclo[3.2.1]octan-3-yl)methyl)phenyl)amino)pyrimidin-4-yl)amino)-N,N-dimethylbenzenesulfonamide]
NCI-H1975 cells; [1]
  IC50: 25.3 nM
NCI-H1650 cells
  IC50: 170 nM

## C[C@@H]1CN(Cc2ccc(Nc3ncc(Cl)c(Nc4ccccc4S(=O)(=O)N(C)C)n3)cc2)C[C@H](C)N1C [Compound 10, 2-((5-chloro-2-((4-(((3R,5S)-3,4,5-trimethylpiperazin-1-yl)methyl)phenyl)amino)pyrimidin-4-yl)amino)-N,N-dimethylbenzenesulfonamide]
NCI-H1975 cells; [1]
  IC50: 21.5 nM
NCI-H1650 cells
  IC50: 136 nM

## COCCN1CCc2cc(Nc3ncc(Cl)c(Nc4ccccc4S(=O)(=O)N(C)C)n3)ccc2C1 [Compound 11, 2-((5-chloro-2-((2-(2-methoxyethyl)-1,2,3,4-tetrahydroisoquinolin-6-yl)amino)pyrimidin-4-yl)amino)-N,N-dimethylbenzenesulfonamide formate]
NCI-H1975 cells; [1]
  IC50: 29.1 nM
NCI-H1650 cells
  IC50: 32.5 nM

## CNCCN1CCc2cc(Nc3ncc(Cl)c(Nc4ccccc4S(=O)(=O)N(C)C)n3)ccc2C1 [Compound 12, 2-((5-chloro-2-((2-(2-(methylamino)ethyl)-1,2,3,4-tetrahydroisoquinolin-6-yl)amino)pyrimidin-4-yl)amino)-N,N-dimethylbenzenesulfonamide]
NCI-H1975 cells; [1]
  IC50: 18.6 nM
NCI-H1650 cells
  IC50: 75.2 nM

## CN(C)CCN1CCc2cc(Nc3ncc(Cl)c(Nc4ccccc4S(=O)(=O)N(C)C)n3)ccc2C1 [Compound 13, 2-((5-chloro-2-((2-(2-(dimethylamino)ethyl)-1,2,3,4-tetrahydroisoquinolin-6-yl)amino)pyrimidin-4-yl)amino)-N,N-dimethylbenzenesulfonamide formate]
NCI-H1975 cells; [1]
  IC50: 19.8 nM
NCI-H1650 cells
  IC50: 67.3 nM

## CNS(=O)(=O)c1ccccc1Nc1nc(Nc2ccc(CN3C4CCC3CN(C)C4)cc2)ncc1Cl [Compound 15, 2-((5-chloro-2-((4-((3-methyl-3,8-diazabicyclo[3.2.1]octan-8-yl)methyl)phenyl)amino)pyrimidin-4-yl)amino)-N-methylbenzenesulfonamide]
DMS114 cells
  IC50: 8.53 nM
NCI-H146 cells
  IC50: 16.2 nM
NCI-H1688 cells
  IC50: 9.16 nM
NCI-H446 cells
  IC50: 6.54 nM

## C[C@@H](Oc1cc(-c2cnn(C3CCNCC3)c2)cnc1N)c1c(Cl)ccc(F)c1Cl [Crizotinib]
PE062 primary cells
  IC50: 900 nM

## COc1cc([C@@H]2c3cc4c(cc3[C@@H](O[C@@H]3O[C@@H]5CO[C@@H](C)O[C@H]5[C@H](O)[C@H]3O)[C@H]3COC(=O)[C@H]23)OCO4)cc(OC)c1O [Etoposide]
DMS114 cells
  IC50: 917 nM
NCI-H146 cells
  IC50: 434 nM
NCI-H82 cells
  IC50: 545 nM
NCI-H1688 cells
  IC50: 739 nM
NCI-H446 cells
  IC50: 1060 nM
PE062 primary cells
  IC50: 770 nM
LT015 primary cells
  IC50: 48200 nM

## Nc1ccn([C@@H]2O[C@H](CO)[C@@H](O)C2(F)F)c(=O)n1 [Gemcitabine]
PE043 primary cells
  IC50: > 834000 nM

## C=CC(=O)Nc1cc(Nc2nccc(-c3cn(C)c4ccccc34)n2)c(OC)cc1N(C)CCN(C)C [Osimertinib]
PE039 primary cells
  IC50: 3990 nM
PE052 primary cells
  IC50: 568 nM
PE062 primary cells
  IC50: 2740 nM
NCI-H1975 cells; Homo sapiens, NCI-H1975, 72 h, read-out: cell viability IC50, NCI-H1975 cells, 72 hours, MTT
  IC50: […]
NCI-H1975 cells; read-out: cell viability IC50, NCI-H1975 cells, 72 hours, MTT
  IC50: […]
NCI-H1650 cells
  IC50: 2750 nM
PE043 primary cells
  IC50: 3370 nM
